{
  "source": "patent EP1002054B1",
  "about": "“PROCESS FOR THE PRODUCTION OF VIRUS IN CELL CULTURES” (priority 1998, dated 1999)",
  "key": {"interferon response [1]": {"tested_on": "interferon response", "conditions": "pretreatment of the cells; cited from earlier work"}, "interferon response [2]": {"tested_on": "interferon response"}},
  "note": "*1 amine or outer side, *2 acyl side, *3 side chain or, on linkers, in order; H or OH if unused. Where a SMILES comes first, the peptide text is derived from it. Bridges are numbered along the chain shown (N, C = ends). Roman numbers before positions name the chains, in order. [ ]: non-standard residue; d: D form. Actinocin(9to1) = Cc1c2oc3c(C)ccc(C(=O)[*:1])c3nc-2c(C(=O)[*:2])c(N)c1=O; NMeV = CN[C@H](C(=O)O)C(C)C; Sar = CNCC(=O)O",
  "data": [
    {"compound": "Cc1c2oc3c(C)ccc(C(=O)N[C@@H]4C(=O)N[C@H](C(C)C)C(=O)N5CCC[C@H]5C(=O)N(C)CC(=O)N(C)[C@@H](C(C)C)C(=O)O[C@@H]4C)c3nc-2c(C(=O)N[C@@H]2C(=O)N[C@H](C(C)C)C(=O)N3CCC[C@H]3C(=O)N(C)CC(=O)N(C)[C@@H](C(C)C)C(=O)O[C@@H]2C)c(N)c1=O", "note": "[actinomycin D] (I: T[dV]P[Sar][NMeV] / II: T[dV]P[Sar][NMeV]; ester I:1-I:C, II:1-II:C; linker I:N-II:N via Actinocin(9to1))", "values": [
      {"measurement": "effect on interferon response", "setting": "interferon response [1]", "value": "blocks the interferon response"},
      {"measurement": "effect on virus yield relative to control cultures", "setting": "interferon response [2]", "value": "substantial increase in virus yield"},
      {"measurement": "toxicity to the cells", "setting": "interferon response [2]", "value": "relatively toxic to the cells"}
    ]}
  ]
}
